Patent publication US20100099564A1, “HERBICIDE COMBINATION COMPRISING DIMETHOXYTRIAZINYL-SUBSTITUTED DIFLUOROMETHANESULFONYLANILIDES” (BAYER CROPSCIENCE AG, priority 2008, published 2010)

How the values were obtained:
Type in all cases: in vivo
[1] = system: Triticum aestivum (TRZAS); test: Post-emergence action, greenhouse pot test, visual scoring: TRZAS; conditions: for (7) % activity found: 21 DAT
Method: (§1) Seeds or rhizome pieces of mono- and dicotyledonous harmful and useful plants were placed in peat pots (diameter 4 cm) filled with sandy loam and then covered with soil. The pots were kept in a greenhouse under optimum conditions. In addition, harmful plants encountered in paddy rice cultivation were cultivated in pots with a water level 2 cm above the soil surface.
(§2) About three weeks after the start of the cultivation, the test plants were treated at the 2- to 3-leaf stage. The herbicides, formulated as powder or liquid concentrates, were, either alone or in the combinations according to the invention, sprayed in various dosages on to the green parts of the plants using an application rate of 600 l of water/ha (converted). For further cultivation of the plants, the pots were then again kept under optimum conditions in a greenhouse.
(§3) The visual scoring of the herbicidal effects was carried out in intervals up to 21 days after the treatment. Scoring was carried out in percent in comparison to the untreated control plants. 0%=no herbicidal activity, 100%=complete herbicidal activity=complete kill.
(§4) The percentages from the treatments with the herbicides alone (=individual application) and with the combinations according to the invention (=mixtures) were employed to calculate interactions using the method of Colby. When the observed efficacies of the mixtures exceed the formal sum of the values of the tests with individual applications, they also exceed the expected value according to Colby, which is calculated using the formula below (cf. S. R. Colby; in Weeds 15 (1967) pp. 20 to 22):
(§5) Here: • A, B=activity of components A and B in percent at a dosage of a and b g of ai/ha (=gramm of active substance per hectare), respectively. • E=expected value in % at a dosage of a+b g of ai/ha.
(§6) The combinations according to the invention of herbicides from group (A) with herbicides from group (B) were tested on a broad spectrum of important harmful plants (weed grasses, broad-leaved weeds/Cyperaceae) and useful plants: Triticum aestivum (TRZAS), Stellaria media (STEME), Lolium multiflorum (LOLMU), Veronica persica (VERPE), Alopecurus myosuroides (ALOMY), Matricaria inodora (MATIN), Brassica napus (BRSNW), Viola tricolor (VIOTR), Avena fatua (AVEFA), Amaranthus retroflexus (AMARE), Zea mays (ZEAMX), Pharbitis purpurea (PHBPU), Setaria viridis (SETVI), Fallopia (ex Polygonum) convolvulus (POLCO), Echinochloa crusgaffi (ECHCG), Abuthilon theophrasti (ABUTH), Cyperus esculentus (CYPES), Oryza sativa (ORYSA).
(§7) Of particular interest are the results shown in the tables (Tab.) below, where the following key is used: • (1) EPPO code (former Bayer code) for the treated plant (see above) • (2) Time of scoring: DAT (days after treatment) • (3) Component A tested (identifying number) • (4) Component B tested (identifying number) • (5) Dosage component A [g of ai/ha] • (6) Dosage component B [g of ai/ha] • (7) % activity found • (8) E value (calculated according to Colby; see above) • (9) Comments: “SYNERGY” =synergistic interaction (E value<% activity found); “SAFENING”=safener action on useful plant (E value>% activity found)

Stellaria media (STEME) = test: Post-emergence action, greenhouse pot test, visual scoring: STEME; conditions: 10 DAT
Method: as §1, §2, §3, §4, §5, §6, §7

Veronica persica (VERPE) = test: Post-emergence action, greenhouse pot test, visual scoring: VERPE
Method: as §1, §2, §3, §4, §5, §6, §7

[2] = system: Alopecurus myosuroides (ALOMY); test: Post-emergence action, greenhouse pot test, visual scoring: ALOMY; conditions: for (7) % activity found: 21 DAT
Method: as §1, §2, §3, §4, §5

[3] = system: Matricaria inodora (MATIN); test: Post-emergence action, greenhouse pot test, visual scoring: MATIN; conditions: dose (6) 100
Method: as §1, §2, §3, §4, §5

Viola tricolor (VIOTR) = test: Post-emergence action, greenhouse pot test, visual scoring: VIOTR; conditions: 21 DAT; dose (6) 100
Method: as §1, §2, §3, §4, §5, §6, §7

Avena fatua (AVEFA) = test: Post-emergence action, greenhouse pot test, visual scoring: AVEFA
Method: as §1, §2, §3, §4, §5, §6, §7

[4] = system: Amaranthus retroflexus (AMARE); test: Post-emergence action, greenhouse pot test, visual scoring: AMARE; conditions: 21 DAT; dose (6) 300
Method: as §1, §2, §3, §4, §5

[5] = system: Pharbitis purpurea (PHBPU); test: Post-emergence action, greenhouse pot test, visual scoring: PHBPU; conditions: 21 DAT
Method: as §1, §2, §3, §4, §5, §6, §7

[6] = system: Fallopia (ex Polygonum) convolvulus (POLCO); test: Post-emergence action, greenhouse pot test, visual scoring: POLCO; conditions: 21 DAT
Method: as §1, §2, §3, §4, §5, §6, §7

[7] = system: Abuthilon theophrasti (ABUTH); test: Post-emergence action, greenhouse pot test, visual scoring: ABUTH; conditions: 21 DAT
Method: as §1, §2, §3, §4, §5, §6, §7

[8] = system: Cyperus esculentus (CYPES); test: Post-emergence action, greenhouse pot test, visual scoring: CYPES; conditions: for (7) % activity found: rate (6) 18
Method: as §1, §2, §3, §4, §5

[9] = system: Lolium multiflorum (LOLMU); test: Post-emergence action, greenhouse pot test, visual scoring: LOLMU; conditions: for % activity found: 10 DAT; for (7) % activity found: 21 DAT
Method: as §1, §2, §3, §4, §5, §6, §7

Setaria viridis (SETVI) = test: Post-emergence action, greenhouse pot test, visual scoring: SETVI; conditions: 21 DAT
Method: as §1, §2, §3, §4, §5, §6, §7

[10] = system: Echinochloa crusgaffi (ECHCG); test: Post-emergence action, greenhouse pot test, visual scoring: ECHCG; conditions: 10 DAT
Method: as §1, §2, §3, §4, §5, §6, §7

CCCOCCN(C(=O)CCl)c1c(CC)cccc1CC [B4-8, 2-chloro-N-(2,6-diethylphenyl)-N-(2-propoxyethyl)acetamide]
0%: % activity found (Veronica persica (VERPE); 10 DAT, dose (6) 100) | % activity found (Veronica persica (VERPE); 10 DAT, dose (6) 300) | % activity found (Veronica persica (VERPE); 21 DAT, dose (6) 100) | % activity found (Veronica persica (VERPE); 21 DAT, dose (6) 300) | % activity found ([3]; 10 DAT) | % activity found ([3]; 21 DAT) | % activity found (Avena fatua (AVEFA); 10 DAT, dose (6) 100) | % activity found (Avena fatua (AVEFA); 21 DAT, dose (6) 100) | % activity found ([5]; dose (6) 100) | % activity found ([5]; dose (6) 300) | % activity found ([6]; dose (6) 100) | % activity found ([7]; dose (6) 100) | % activity found ([7]; dose (6) 300) | % activity found ([8]; 21 DAT, dose (6) 100) | % activity found ([8]; 21 DAT, dose (6) 300)
10%: plant injury at 300 g/ha ([1]; Triticum aestivum, post-emergence, 240 h, 10 DAT, B 300 g of ai/ha, read-out: % activity found) | % activity found (Stellaria media (STEME); dose (6) 100) | % activity found (Stellaria media (STEME); dose (6) 300) | pest or weed control at 100 g/ha ([2]; Alopecurus myosuroides, post-emergence, 240 h, 10 DAT, B 100 g of ai/ha, read-out: % activity found) | % activity found (Viola tricolor (VIOTR))
20%: % activity found [4] | % activity found ([6]; dose (6) 300)
30%: % activity found (Avena fatua (AVEFA); 21 DAT, dose (6) 300)

COc1cc(OC)nc(NC(=O)NS(=O)(=O)Nc2ccccc2C(=O)C2CC2)n1 [B7-7, N-[[[2-(cyclopropylcarbonyl)phenyl]amino]sulfonyl]-N′-(4,6-dimethoxy-2-pyrimidinyl)urea]
0%: (7) % activity found ([1]; rate (6) 18) | (7) % activity found ([1]; rate (6) 54) | % activity found ([9]; dose (6) 18) | % activity found ([9]; dose (6) 54) | (7) % activity found ([9]; rate (6) 18) | (7) % activity found ([9]; rate (6) 54) | % activity found (Avena fatua (AVEFA); 10 DAT, dose (6) 18) | (7) % activity found (Avena fatua (AVEFA); 21 DAT, rate (6) 18) | (7) % activity found ([10]; rate (6) 18) | (7) % activity found ([10]; rate (6) 54) | (7) % activity found ([8]; 10 DAT)
40%: (7) % activity found ([2]; rate (6) 54) | (7) % activity found ([8]; 21 DAT)
20%: (7) % activity found (Setaria viridis (SETVI); rate (6) 18) | (7) % activity found (Setaria viridis (SETVI); rate (6) 54)
30%: (7) % activity found ([2]; rate (6) 18) | % activity found (Avena fatua (AVEFA); 10 DAT, dose (6) 54)
10%: (7) % activity found (Avena fatua (AVEFA); 21 DAT, rate (6) 54)
